Source: paper PMC8954547, “Nonpeptidic Z360-Analogs Tagged with Trivalent Radiometals as Anti-CCK2R Cancer Theranostic Agents: A Preclinical Study” (Pharmaceutics, 2022)

What was measured:
[1] = Radioligand stability in mice (radio-HPLC of blood and urine); assay type: in vivo; conditions: mean ± SD
How it was run: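 Male Swiss albino mice (n=3) given 2.5–3 nmol radioligand i.v. via tail vein in saline/EtOH 9/1. Blood at 5 min and urine at 30 min pi, EDTA-treated on ice, MeCN-deproteinised, analysed by radio-RP-HPLC; value is mean percent intact radioligand ± SD.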

HEK293-CCK2i4svR cells = test: Radioligand uptake and internalization in HEK293-CCK2i4svR cells; assay type: cell-based, human
How it was run: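 Cells incubated at 37 °C with 250 fmol radioligand in DMEM/1% FBS for 1 h ([111In]In-GAS1/2/3 also 15, 30 min, 2 h). Acid wash (glycine pH 2.8) gave membrane-bound and 1 N NaOH lysis gave internalized fractions, gamma-counted. Specific values (minus 1 µM DG2 nonspecific) as % of added activity per well.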

With `CC(C)(C)C(=O)CN1C(=O)[C@H](NC(=O)Nc2cccc(C(=O)NCCOCCOCCOCCNC(=O)[C@H](CCC(=O)O)NC(=O)CCC(C(=O)O)N3CCN(CC(=O)[O-])CCN(CC(=O)[O-])CCN(CC(=O)[O-])CC3)c2)CN(C2CCCCC2)c2ccccc21.[177Lu+3]` (stereo in doubt) [[^177Lu]Lu-GAS3] the “Intact radioligand in blood” value ([1]; mice blood collected 5 min pi) was 95.8 ± 2.0 (3) %, the “Intact radioligand in urine” value ([1]; mice urine collected 30 min pi) was 88.1 ± 0.4 (3) % and the “Internalized to membrane-bound ratio” value (HEK293-CCK2i4svR cells) was 2.8. For the same compound, the “Cell uptake (internalized + membrane-bound)” value (HEK293-CCK2i4svR cells; 1 h 37 °C, specific, of total added activity) was 7.65 ± 1.31%.
